Reference: ChEMBL document CHEMBL1144996 (J Med Chem, 2003)

Experiments:
Carbonic anhydrase 9 = Carbonic anhydrase 9 (Homo sapiens, UniProt Q16790)
Carbonic anhydrase 2 = Carbonic anhydrase 2 (Homo sapiens, UniProt P00918)
Carbonic anhydrase 1 = Carbonic anhydrase 1 (Homo sapiens, UniProt P00915)
Chain of Carbonic anhydrase 1 (P00915 whole entry): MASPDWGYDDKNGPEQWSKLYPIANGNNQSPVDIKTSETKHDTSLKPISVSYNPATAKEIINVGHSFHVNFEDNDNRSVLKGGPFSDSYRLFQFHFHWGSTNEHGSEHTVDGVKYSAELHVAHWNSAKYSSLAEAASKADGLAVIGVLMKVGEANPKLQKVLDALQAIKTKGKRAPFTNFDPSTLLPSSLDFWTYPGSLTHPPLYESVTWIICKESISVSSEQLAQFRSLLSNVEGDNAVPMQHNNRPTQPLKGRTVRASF

Compound | Ki (Carbonic anhydrase 9) [nM] | Ki (Carbonic anhydrase 2) [nM] | Ki (Carbonic anhydrase 1) [nM]
C[C@]12CC[C@@H]3c4ccc(O)cc4CC[C@H]3[C@@H]1CC[C@@H]2OS(N)(=O)=O | 32 | 13 | 15
C[C@]12CC[C@@H]3c4ccc(OS(N)(=O)=O)cc4CC[C@H]3[C@@H]1CC[C@@H]2OS(N)(=O)=O | 58 | 5 | 6
NS(=O)(=O)Oc1ccc([N+](=O)[O-])cc1 | 36 | 1.5 | 40
NS(=O)(=O)Oc1ccc(Cl)cc1 | 18 | – | 4.6
N#Cc1ccc(OS(N)(=O)=O)cc1 | 41 | 149 | 480
NS(=O)(=O)Oc1ccc(I)cc1 | 23 | 3.8 | 9.5
Cc1ccc(OS(N)(=O)=O)cc1 | 59 | 1.9 | 3.8
NS(=O)(=O)Oc1ccc(Br)cc1 | 19 | – | 7.3
CC1(C)OCC(C2OC3OC(C)(C)OC3[C@H]2OS(N)(=O)=O)O1 (some centres not stated) | 39 | 15 | 278
NS(=O)(=O)Oc1c(Cl)cc(Cl)cc1Cl | 37 | 138 | 454
NS(=O)(=O)Oc1ccc(-c2ccccc2)cc1 | 50 | 95 | 113
NS(=O)(=O)OCCOc1ccc(-n2ccnc2)cc1 | 26 | 23 | 28
CC(=O)Nc1ccc(OS(N)(=O)=O)cc1 | 45 | 18 | 37
NS(=O)(=O)Oc1ccc(Oc2ccccc2)cc1 | 51 | 98 | 115
CC(C)(C)c1ccc(OS(N)(=O)=O)cc1 | – | 2.9 | 43
C[C@]12CCC(OS(N)(=O)=O)CC1=CCC1C2CC[C@]2(C)C(=O)CCC12 (some centres not stated) | 44 | 27 | 31
CC1(C)O[C@@H]2[C@H](O1)[C@H]1OC(C)(C)OC1O[C@@H]2COS(N)(=O)=O (some centres not stated) | 32 | 29 | 315
COc1ccc(OS(N)(=O)=O)cc1 | 34 | 1.6 | 33
C[C@]12CC[C@@H]3c4ccc(OS(N)(=O)=O)cc4CC[C@H]3[C@@H]1CCC2=O [EMATE] | – | – | 37
NS(=O)(=O)Oc1ccccc1 [PHENYLSULFAMATE] | 63 | – | 2.1
NS(=O)(=O)Oc1c(Cl)c(Cl)c(Cl)c(Cl)c1Cl [SULFAMIC ACID PENTACHLOROPHENYL ESTER] | 39 | 125 | 432
